Experimental data as given in patent US20060045953A1 (priority 2004, published 2006).

Legend:
[1] = biological target: T1, hT1R2/hT1R3 sweet receptor (Homo sapiens, UniProt Q7RTX0+Q8TE23); test: In vitro hT1R2/hT1R3 sweet taste receptor activation assay (FLIPR, dose response); assay type: cell-based; details: read-out: EC50 for activation of a hT1R2/hT1R3 sweet receptor expressed in an HEK293 cell line
T1 construct: expressed in transfected cells; host or cells: HEK293 derivative stably expressing Gα15, clone S-9
T1 sequence (Q8TE23 20-839): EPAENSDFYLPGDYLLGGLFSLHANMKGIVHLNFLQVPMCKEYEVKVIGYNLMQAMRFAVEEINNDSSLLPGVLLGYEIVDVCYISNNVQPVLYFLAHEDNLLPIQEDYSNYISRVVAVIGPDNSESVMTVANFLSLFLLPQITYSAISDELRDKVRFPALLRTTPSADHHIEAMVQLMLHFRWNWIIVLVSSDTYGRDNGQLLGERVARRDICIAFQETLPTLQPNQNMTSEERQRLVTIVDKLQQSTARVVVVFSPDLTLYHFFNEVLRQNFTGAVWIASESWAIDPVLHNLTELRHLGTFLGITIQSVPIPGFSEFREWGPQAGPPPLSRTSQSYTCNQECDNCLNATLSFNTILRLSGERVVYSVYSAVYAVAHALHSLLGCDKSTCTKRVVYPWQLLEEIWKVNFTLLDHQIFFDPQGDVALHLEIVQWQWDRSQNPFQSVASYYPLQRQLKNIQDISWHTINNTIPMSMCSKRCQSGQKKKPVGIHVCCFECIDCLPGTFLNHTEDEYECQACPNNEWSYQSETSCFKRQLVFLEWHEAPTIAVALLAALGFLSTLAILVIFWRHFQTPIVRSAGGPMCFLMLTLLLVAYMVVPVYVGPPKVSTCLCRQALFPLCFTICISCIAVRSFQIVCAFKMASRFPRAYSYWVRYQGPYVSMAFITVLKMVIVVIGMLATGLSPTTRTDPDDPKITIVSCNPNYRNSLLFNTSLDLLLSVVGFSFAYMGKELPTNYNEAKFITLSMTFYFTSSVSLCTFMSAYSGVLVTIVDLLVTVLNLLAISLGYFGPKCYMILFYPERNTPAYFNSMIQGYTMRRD
T1 sequence (Q7RTX0 21-852): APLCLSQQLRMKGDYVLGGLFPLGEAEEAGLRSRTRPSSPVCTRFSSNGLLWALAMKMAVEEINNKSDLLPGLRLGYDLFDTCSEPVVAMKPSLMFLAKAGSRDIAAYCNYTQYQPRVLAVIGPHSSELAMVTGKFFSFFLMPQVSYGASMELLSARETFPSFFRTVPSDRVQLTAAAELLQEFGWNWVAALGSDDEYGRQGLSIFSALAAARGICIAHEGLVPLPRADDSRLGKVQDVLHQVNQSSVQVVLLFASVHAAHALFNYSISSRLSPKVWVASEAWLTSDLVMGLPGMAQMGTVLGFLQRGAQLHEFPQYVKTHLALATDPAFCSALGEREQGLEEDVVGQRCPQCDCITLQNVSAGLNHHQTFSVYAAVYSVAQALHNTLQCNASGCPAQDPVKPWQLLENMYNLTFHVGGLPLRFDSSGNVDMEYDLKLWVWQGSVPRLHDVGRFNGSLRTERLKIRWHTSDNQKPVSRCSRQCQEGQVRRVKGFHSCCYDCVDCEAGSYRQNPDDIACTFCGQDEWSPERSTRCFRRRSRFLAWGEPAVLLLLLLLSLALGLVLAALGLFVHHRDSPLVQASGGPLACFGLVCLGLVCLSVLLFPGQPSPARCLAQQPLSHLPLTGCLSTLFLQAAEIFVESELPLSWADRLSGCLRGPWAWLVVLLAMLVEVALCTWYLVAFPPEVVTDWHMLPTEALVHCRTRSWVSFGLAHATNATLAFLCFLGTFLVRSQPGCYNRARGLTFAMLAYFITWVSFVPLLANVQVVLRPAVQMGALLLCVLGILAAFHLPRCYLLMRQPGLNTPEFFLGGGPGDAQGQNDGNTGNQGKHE
Outline: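 Dose-response at 10 concentrations (60 nM–30 µM, duplicates) measured as Fluo-3AM calcium fluorescence on FLIPR in hT1R2/hT1R3 S-9 cells, in D-PBS at room temperature. Responses scaled to 400 mM D-fructose. EC50s from regression with all curve parameters floating.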

[2] = biological target: T2, hT1R1/hT1R3 umami receptor (Homo sapiens, UniProt Q7RTX0+Q7RTX1); test: In vitro hT1R1/hT1R3 umami taste receptor activation assay (FLIPR, dose response); assay type: cell-based; details: read-out: EC50 for activation of a hT1R1/hT1R3 umami receptor expressed in an HEK293 cell line
T2 construct: expressed in transfected cells; host or cells: HEK293 derivative stably expressing Gα15, clone I-17, expression induced with mifepristone
T2 sequence (Q7RTX1 21-841): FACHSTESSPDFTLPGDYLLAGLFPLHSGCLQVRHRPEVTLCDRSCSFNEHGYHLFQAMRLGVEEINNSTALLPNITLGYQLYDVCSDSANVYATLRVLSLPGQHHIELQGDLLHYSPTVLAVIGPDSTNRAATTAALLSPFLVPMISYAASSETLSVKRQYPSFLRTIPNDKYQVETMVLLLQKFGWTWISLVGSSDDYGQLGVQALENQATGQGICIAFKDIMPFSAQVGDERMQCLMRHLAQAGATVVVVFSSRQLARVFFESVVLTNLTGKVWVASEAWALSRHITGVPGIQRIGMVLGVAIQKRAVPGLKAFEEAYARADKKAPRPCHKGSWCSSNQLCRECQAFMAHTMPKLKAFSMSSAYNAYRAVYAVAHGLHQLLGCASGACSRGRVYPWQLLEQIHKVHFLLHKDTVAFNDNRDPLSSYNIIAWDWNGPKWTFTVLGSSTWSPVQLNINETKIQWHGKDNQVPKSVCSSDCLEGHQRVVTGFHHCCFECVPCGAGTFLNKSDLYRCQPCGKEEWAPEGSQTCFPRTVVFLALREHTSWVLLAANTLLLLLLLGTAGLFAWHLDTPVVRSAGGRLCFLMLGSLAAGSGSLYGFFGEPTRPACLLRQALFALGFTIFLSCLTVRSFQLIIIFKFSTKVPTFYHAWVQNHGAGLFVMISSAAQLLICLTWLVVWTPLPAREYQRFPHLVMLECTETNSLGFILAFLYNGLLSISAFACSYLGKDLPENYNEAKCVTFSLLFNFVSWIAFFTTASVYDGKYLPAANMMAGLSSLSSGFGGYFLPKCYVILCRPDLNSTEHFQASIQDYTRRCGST
T2 sequence (Q7RTX0 21-852): T1 sequence (Q7RTX0 21-852)

| melting point [°C] | EC50 [1] [µM] | EC50 [2] [µM] | Structure (SMILES) |
| --- | --- | --- | --- |
| 148 to 151 | 1.17 |  | O=C(N[C@@H]1CCCc2c(O)cccc21)c1cccc(Cl)c1O (stereo in doubt) [Example 180, 3-Chloro-2-hydroxy-N-(5-hydroxy-1,2,3,4-tetrahydronaphthalen-1-yl)benzamide] |
| 202 to 204 | 0.39 |  | Cc1c(F)c(F)c(C(=O)NC2CCCCC2C)c(F)c1F (stereo not drawn) [Example 162, 2,3,5,6-tetrafluoro-4-methyl-N-(2-methylcyclohexyl)benzamide] |
| 164 to 165 | 1.85 |  | Cc1c(F)c(F)c(C(=O)NC2CCCCCC2)c(F)c1F [Example 164, N-cycloheptyl-2,3,5,6-tetrafluoro-4-methylbenzamide] |
| 184 to 187 | 0.81 |  | Cc1c(F)c(F)c(C(=O)NC(C(C)C)C(C)C)c(F)c1F [Example 165, N-(2,4-dimethylpentan-3-yl)-2,3,5,6-tetrafluoro-4-methylbenzamide] |
| 57 to 58 | 0.76 |  | Cc1cc(C)c2c(c1)C(NC(=O)c1conc1C)CCC2 (stereo not drawn) [Example 166, N-(5,7-dimethyl-1,2,3,4-tetrahydronaphthalen-1-yl)-3-methylisoxazole-4-carboxamide] |
| 175 to 176 | 0.21 |  | COc1cccc2c1CCCC2NC(=O)c1cccc(Cl)c1O (stereo not drawn) [Example 167, 3-chloro-2-hydroxy-N-(5-methoxy-1,2,3,4-tetrahydronaphthalen-1-yl) benzamide] |
| 165 to 166 | 1.05 |  | O=C(Nc1ccc2c(c1)OCO2)N1Cc2ccccc2C1 [Example 174, N-(3,4-methylenedioxyphenyl)isoindoline-2-carboxamide] |
| 111 to 113 | 0.85 |  | COc1ccc2c(c1)CCC[C@H]2NC(=O)c1cccc(Cl)c1O [Example 183, (R)-3-Chloro-2-hydroxy-N-(6-methoxy-1,2,3,4-tetrahydronaphthalen-1-yl)benzamide] |

Continued, compound first:

| Structure (SMILES) | melting point [°C] | EC50 [1] [µM] | EC50 [2] [µM] |
| --- | --- | --- | --- |
| COc1ccc(CNC(=O)C(=O)NCCc2cc(C)ccn2)c(OC)c1 [Example 154, N-(2,4-Dimethoxybenzyl)-N′-(2-(4-methylpyridin-2-yl)ethyl)oxalamide] | 144 to 145 |  | 1.64 |
| COc1ccc(CNC(=O)C(=O)NCCc2ccc(C)cn2)c(OC)c1 [Example 155, N-(2,4-Dimethoxybenzyl)-N′-(2-(5-methylpyridin-2-yl)ethyl)oxalamide] | 124 to 125 |  | 0.07 |
| COc1ccc(CNC(=O)C(=O)NCCc2cccs2)c(OC)c1 [Example 156, N-(2,4-Dimethoxybenzyl)-N′-(2-(thiophen-2-yl)ethyl)oxalamide] | 146 to 147 |  | 4.87 |
| CCCC(CCC)NC(=O)Nc1ccccc1Cl [Example 158] | 135 to 136 |  | 0.37 |
| CCCC(CCC)NC(=O)Nc1ccc(OC)cc1OC [Example 159, 1-(2,4-dimethoxyphenyl)-3-(heptan-4-yl)urea] | 172 to 173 |  | 0.98 |
| CCOc1ccc(NC(=O)NCCc2ccccn2)cc1 [Example 160, 1-(4-ethoxyphenyl)-3-(2-(pyridine-2-yl)ethyl)urea] | 163 to 164 |  | 4.1 |
| CC(C)c1ccc(NC(=O)NCCc2ccccn2)cc1 [Example 161, 1-(4-isopropylphenyl)-3-(2-(pyridine-2-yl)ethyl)urea] | 72 to 73 |  | 0.98 |
